From US11116212B2, “Carbonyl containing compounds for controlling and repelling Cimicidae populations” (SemiosBio Technologies Inc., priority 2011, dated 2021)
Where a name gives a salt, the structure may show the parent alone. Read-outs that look alike come from different tables or passages of the source. Marks after values point to notes of the source that are not given here.

How the values were obtained:
Assay type in all cases: in vivo
[1] = system: bed bugs, Cimex lectularius; test: Bed bug repellency bioassay, Petri dish arena; settings: filter paper, 100 uL, 1% v/v in hexane, average of 3 replicates x 3 observation periods
From the text: (i) Petri Dish arenas consisted of a standard plastic, covered Petri Dish where test substrates were placed at opposite sides of the dish. Dimensions of the dish were 101.6 mm in diameter by 25.4 mm in depth.
(ii) Filter paper of standard size and folded as per (i).
In the case of gauze and filter paper substrates, control solvents and test mixtures of known concentrations and volumes were dispensed directly onto substrates using a pipette. […]
Immediately after the substrates were infused with test compounds and control solvents, test subjects were introduced to the centre of the selected observation arena. […] Only subjects that were in close contact with the treatment or control substrates were recorded. […] Percentage repellency was calculated based on a modification of Abbott's formula to account for negative repellency (attraction). […]

[2] = system: bed bugs, Cimex lectularius; test: Bed bug repellency bioassay, glass tube olfactometer arena; settings: for pest or weed control at 5 % strength / pest or weed control at 1 % / pest or weed control at 25 % strength: Cimex lectularius; for pest or weed control at 1 %: 10 uL; for pest or weed control at 25 % strength: 20 uL, 25% w/w in hexane; for % R (Overall Average): Example 2, single compound at 5% (w/w)
Protocol: (§1) Per individual bioassay, 10 adult or late instar nymph bed bugs, Cimex lectularius, of mixed sex. Bed bugs sourced from wild, field populations and tested within 2 weeks of capture. Subjects were tested one time, only.
(ii) Olfactometer consisting of a glass tube. Tube ends were plugged to prevent egress of test subjects. Test substrates were placed at opposite ends of the tube. Tube Olfactometer includes a port in the centre for introduction of test subjects. Dimensions of the tube were 15.2 mm in diameter by 304.8 mm long.
Compounds were either purchased from commercial sources or synthesized using conventional synthetic organic chemistry techniques (see, for example, Examples 5 to 7). Some compounds (014, 058 and 080) were tested in duplicate (one version from commercial sources and one synthesized) and the best performance is reported in the Tables below. Of the tested compounds reported in the Tables below, the following compounds were synthesized: 006, 010, 017, 018, 040, 041 to 043, 045, 046, 048, 049, 058, 067 to 075, 079, 080 to 082, 089 and 090.
Test compounds consisted of a control and treatment. The treatment consisted of a test compound mixed as a percentage w/w in a suitable solvent. The test compound solvent itself was used as a control. Solvents used were hexane, hexane:methanol, or dichloromethane:methanol.
(i) Gauze cut to a standard size and folded upon itself to provide harbourage for test subjects.
(iii) Absorbent polymer “aroma” beads that were given sufficient time to fully absorb test compounds and control solvents.
In the case of gauze and filter paper substrates, control solvents and test mixtures of known concentrations and volumes were dispensed directly onto substrates using a pipette. For polymer beads, beads were mixed w/w with solvent or test compound in a small glass jar. The jars were occasionally agitated to facilitate soaking of the beads.
(§2) Immediately after the substrates were infused with test compounds and control solvents, test subjects were introduced to the centre of the selected observation arena. […] Only subjects that were in close contact with the treatment or control substrates were recorded. Subjects elsewhere in the arena were not included in repellency calculations. Percentage repellency was calculated based on a modification of Abbott's formula to account for negative repellency (attraction). Specifically: IF(C>=T,(C−T)/C*100,(T−C)/T*−100)
(§3) where C is number of test subjects in contact with control substrate and T is number of test subjects in contact with treatment substrate.
All average repellency results reported in the table are based on 3 replicates for each reported trial, with each trial involving at least 3 observation periods. The observation periods were short-term (30 min), medium-term (1-2 hours), and long-term (24-48 hours). The “overall average” reported in the table represents the average for 3 replicates for 3 observation periods. […]
To determine whether compounds could be combined in the repellent compositions, compounds 14 and 35 were each tested at a concentration of 5% (w/w), and as a combination comprising each compound at a concentration of 2.5% (w/w). The formulations were tested as described in Example 1 using the olfactometer configuration.

[3] = system: bed bugs, Cimex lectularius; test: Bed bug repellency bioassay, box arena (formulations of compound 35)
Protocol: as §1
(iii) Box arenas consisted of covered plastic “Rubbermaid” box where the cover was modified to fit a mesh screen to allow movement of air between the test arena interior and outside. Test substrates were placed at opposite ends of the box arena. Dimensions of the box were 304.8 mm long by 200 mm wide by 80 mm in depth.
as §2, §3
Compound 35 was formulated as a spray formulation in which the compound was dissolved in isopropyl alcohol (IPA) at concentrations of 1%, 2.5% and 5%.
In addition, compound 35 was tested on plastic slow-release beads. The beads were cured with either: 1) 20% (w/w) neat compound 35, or 2) 20% (w/w) of a 1:1 mixture of compound 35 and wintergreen oil (methyl salicylate).
The formulations were tested as described in Example 1 using the box configuration.

[4] = gauze, 50 uL, 5% w/v in hexane, average of 3 replicates x 3 observation periods, read-out: % Repellency (% R), Overall Average
[5] = gauze, 1% v/v in hexane, average of 3 replicates x 3 observation periods, read-out: % Repellency (% R), Overall Average
[6] = gauze, 1% v/v in hexane, best single observation (one repetition, one time), read-out: % Repellency, At least One Time >50%
[7] = observation period T1, gauze, 1% v/v in hexane, read-out: % Repellency T1 (average of 3 repetitions)
[8] = observation period T2, gauze, 1% v/v in hexane, read-out: % Repellency T2 (average of 3 repetitions)
[9] = observation period T3, gauze, 1% v/v in hexane, read-out: % Repellency T3 (average of 3 repetitions)
[10] = beads, average of 3 replicates x 3 observation periods, read-out: % Repellency (% R), Overall Average

CCOC(=O)CCC(=O)O [Compound 055, Mono-ethyl succinate]
% Repellency (% R), Overall Average [1]: 73%

COC(=O)/C=C/C(C)=O [Compound 056, Methyl trans-4-oxo-2-pentenoate]
pest or weed control at 5 % strength [2, 4]: 53%

CCC(=O)/C=C/CO [Compound 006, (E)-6-hydroxyhex-4-en-3-one]
pest or weed control at 1 % [2, 5]: -49% | pest or weed control at 1 % [2, 6]: 57% | pest or weed control at 1 % [2, 7]: -62% | pest or weed control at 1 % [2, 8]: -74% | pest or weed control at 1 % [2, 9]: -11%

CCC(=O)/C=C/c1ccco1 [Compound 040, (E)-1-(furan-2-yl)pent-1-en-3-one]
pest or weed control at 5 % strength [2, 4]: > 80%

C=COC(=O)CC [Compound 031, Vinyl propionate]
pest or weed control at 5 % strength [2, 4]: 8% | pest or weed control at 5 % strength ([2]; gauze, 50 uL, 5% w/v in hexane, best single observation (one repetition, one time), read-out: % Repellency, At least One Time >50%): 100% | pest or weed control at 5 % strength ([2]; observation period T1, gauze, 50 uL, 5% w/v in hexane, read-out: % Repellency T1 (average of 3 repetitions)): 45% | pest or weed control at 5 % strength ([2]; observation period T2, gauze, 50 uL, 5% w/v in hexane, read-out: % Repellency T2 (average of 3 repetitions)): 45% | pest or weed control at 5 % strength ([2]; observation period T3, gauze, 50 uL, 5% w/v in hexane, read-out: % Repellency T3 (average of 3 repetitions)): -67%

COC(=O)/C=C/C(=O)OC [Compound 058, dimethyl fumarate]
pest or weed control at 5 % strength [2, 4]: > 80%

CC(=O)CC/C=C(\C)CCC=C(C)C [Compound 044, 6,10-dimethyl-5,9-undecadien-2-one]
pest or weed control at 5 % strength [2, 4]: > 80%

CCCC(=O)/C=C/C=O [Compound 003, 4-oxo-2-heptenal]
pest or weed control at 5 % strength [2, 4]: > 80%

CCC(=O)/C=C/C(=O)O [Compound 070, (E)-4-oxohex-2-enoic acid]
pest or weed control at 1 % ([2]; gauze, 1% v/v in hexane:methanol (1:1), average of 3 replicates x 3 observation periods, read-out: % Repellency (% R), Overall Average): 74%

CC(=O)C(C)C(C)C(C)=O (stereo not drawn) [Compound 025, 3,4-dimethyl-2,5-hexanedione]
pest or weed control at 25 % strength [2, 10]: 77%

CCCC(=O)/C=C/CO [Compound 046, (E)-1-hydroxyhept-2-en-4-one]
pest or weed control at 5 % strength [2, 4]: 65%

CC(C)C(=O)c1ccco1 [Compound 082, 1-(2-furyl)-2-methyl-propan-1-one]
pest or weed control at 25 % strength [2, 10]: > 80%

CCC(=O)OCc1ccco1 [Compound 035, Furfuryl propionate]
pest or weed control at 25 % strength [2, 10]: > 80% | % R (Overall Average) [2]: 95% | % R (Overall Average) ([3]; IPA spray, 1% (w/w) compound 35 in isopropyl alcohol): 92% | % R (Overall Average) ([3]; IPA spray, 2.5% (w/w) compound 35 in isopropyl alcohol): 94% | % R (Overall Average) ([3]; IPA spray, 5% (w/w) compound 35 in isopropyl alcohol): 100% | repellency of formulations (in words) ([3]; both formulation formats (IPA spray, plastic beads), all concentrations tested): excellent repellency | % R (Overall Average) ([3]; plastic slow-release beads cured with 20% (w/w) neat compound 35): 100% | % R (Overall Average) ([3]; plastic slow-release beads, 10% compound 35 + 10% wintergreen oil (methyl salicylate)): 100%

CCCCC(O)c1ccco1 (stereo not drawn) [Compound 073, 1-(furan-2-yl) pentan-1-ol]
pest or weed control at 5 % strength [2, 4]: > 80%

CCC(=O)C(=O)CC [Compound 027, 3,4-Hexanedione]
pest or weed control at 5 % strength ([2]; read-out: % Repellency (% R), Overall Average, gauze, 50 uL, 5% w/v in hexane, average of 3 replicates x 3 observation periods): 75%

CCCCCCCCCCC(C)=O [Compound 061, 2-dodecanone]
pest or weed control at 5 % strength [2, 4]: > 80%

CC(=O)c1ccco1 [Compound 080, 2-Furyl methyl ketone]
pest or weed control at 5 % strength [2, 4]: > 80%

COC(=O)CCC=O [Compound 052, Methyl 4-oxobutanoate]
pest or weed control at 25 % strength [2, 10]: -17% | pest or weed control at 25 % strength ([2]; beads, best single observation (one repetition, one time), read-out: % Repellency, At least One Time >50%): 100% | pest or weed control at 25 % strength ([2]; observation period T1, beads, read-out: % Repellency T1 (average of 3 repetitions)): 11% | pest or weed control at 25 % strength ([2]; observation period T2, beads, read-out: % Repellency T2 (average of 3 repetitions)): -50% | pest or weed control at 25 % strength ([2]; observation period T3, beads, read-out: % Repellency T3 (average of 3 repetitions)): -11%

C=CCOC(=O)CC [Compound 017, allyl propionate]
pest or weed control at 1 % [2, 5]: 4% | pest or weed control at 1 % [2, 6]: 90% | pest or weed control at 1 % [2, 7]: -20% | pest or weed control at 1 % [2, 8]: 13% | pest or weed control at 1 % [2, 9]: 18%

CCC(C)C(=O)c1ccco1 (stereo not drawn) [Compound 089, 1-furan-2-yl-2-methylbutan-1-one]
pest or weed control at 5 % strength [2, 4]: > 80%

CCC(=O)c1ccco1 [Compound 014, 1-(furan-2-yl)propan-1-one]
pest or weed control at 25 % strength [2, 10]: > 80% | % R (Overall Average) [2]: 71%
